# Assay results as given in US20230346734A1, “COMBINATION THERAPY OF ATRA OR OTHER RETINOIDS WITH IMMUNOTHERAPEUTIC AGENTS BINDING TO BCMA” (JULIUS-MAXIMILIANS-UNIVERSITÄT WÜRZBURG, priority 2020, published 2023).
# How the values were obtained:
# BCMA RNA levels in MM.1S = BCMA RNA levels in MM.1S by qRT-PCR; type: cell-based, human; conditions: 50 nM ATRA, 48 hours, qPCR
# Method: (§1) BCMA RNA levels in MM.1S (n=4) and OPM-2 (n=3) by quantitative reverse transcription PCR (qRT-PCR) assay was quantified after incubation with increasing doses of ATRA for 48 hours. Depicted are mean values+SD.
# (§2) Total RNAs were extracted with RNeasy Mini Kit (Qiagen, Hilden, Germany) according to the manufacturer's protocol. Reverse transcription-quantitative polymerase chain reaction (RT-qPCR) analysis of BCMA was performed with 1 μg of total RNA and SuperScript™ II Reverse Transcriptase (Thermo Fisher Scientific, Inc Massachusetts). The quality and integrity of the RNA was verified by a Bioanalyzer 2100 (Agilent Technologies, Santa Clara, CA). The primer sequences used were as follows: BCMA forward primer, 5′-TGTTCTTCTAATACTCCTCCTCT-3′ (SEQ ID NO: 25) and reverse primer, 5′-AACTCGTCCTTTAATGGTTC-3′ (SEQ ID NO: 26). […] RT-qPCR was performed in a 7900HT Real-time PCR System (Thermo Fisher Scientific, Inc Massachusetts) using Quantitec SYBR green Kit (Qiagen, Hilden, Germany) in a 7900 HT Fast Real Time PCR System (Applied Biosystems, Foster City, CA). […] The threshold cycle for each sample was selected from the linear range and converted to a starting quantity by interpolation from a standard curve generated on the same plate for each set of primers. […]
# [1] = test system: BCMA-CAR T-cells co-incubated with MM.1S; test: Proliferation of CFSE-labeled BCMA-CAR T-cells after stimulation with pretreated MM.1S; type: cell-based, human; conditions: MM.1S pretreated 72 hours with 100 nM ATRA and/or 0.01 uM GSI; CFSE after three days
# Method: MM.1S were incubated with 100 nM ATRA and/or 0.01 uM GSI for 72 hours or were left untreated. Afterwards, CFSE-labeled BCMA-CAR T-cells were co-incubated with these target cells. Proliferative capacity of BCMA-CAR T-cells was determined after three days by measuring the reduction of CFSE-labeling in effector cells. Data are presented as mean values+SD of n=3 independent experiments.
# (§3) Cytolytic activity was analyzed in a bioluminescence-based assay using firefly-luciferase (ffluc)-transduced target cells. Proliferation was measured by dilution of CFSE proliferation dye by flow cytometry. Therefore, CFSE-labeled CAR T-cells were incubated with target cells for 72 h at a 4:1 effector to target cell ratio. IFNγ and IL-2 were measured by ELISA (Biolegend, Koblenz, Germany) in supernatants obtained after a 20 hour co-culture of T-cells with target cells (effector:target ratio=4:1).
# [2] = test system: BCMA surface molecules on MM.1S cells; test: BCMA molecule distribution on MM.1S cells by dSTORM; type: cell-based, human; conditions: vs untreated
# Excerpt: Representative photographs of BCMA molecule distribution on untreated and ATRA-treated MM.1S cells visualized by direct stochastic optical reconstruction microscopy (dSTORM).
# BCMA expression on MM.1S [3] = test: BCMA expression on MM.1S from bone marrow of ATRA-treated NSG mice; type: in vivo; conditions: NSG/MM1.S; ATRA 30 mg/kg i.p. every day, 4 days; P=0.002
# Method: NSG mice were inoculated with MM.1S cells. After twelve days, mice were i.p. injected with 30 mg/kg ATRA for 4 days. BCMA-expression on MM.1S cells obtained from bone marrow of untreated and ATRA-treated mice was analysed by flow cytometry.
# The University of Wurzburg Institutional Animal Care and Use Committee approved all mouse experiments. Six- to eight-week old female NSG (NOD-scid IL2rynull) mice were obtained from Charles River and inoculated by tail vein injection with 2×10^6 MM.1S/ffluc_GFP at day 0 and randomly allocated to ATRA-treatment and control group. ATRA (Sigma Aldrich, Darmstadt, Germany) was formulated in corn oil and administered by intraperitoneal (i.p) injection (30 mg/kg) for four days, starting twelve days after tumor inoculation.
# This encouraged experiments in a murine xenograft model of myeloma (NSG/MM1.S). In a first set of experiments, n=6 mice were inoculated with MM1.S cells (2×10^6 cells given i.v. by tail vein injection) for 12 days to establish systemic myeloma, and then administered a 4-day treatment course with either ATRA (n=3 mice; 30 mg/kg given i.p. every day) or solvent control (n=3 mice). The following day, mice were sacrificed, MM.1S myeloma cells were isolated from bone marrow and BCMA expression analyzed by flow cytometry. […] The in vivo upregulation of BCMA after GSI treatment was shown by Pont et. al. in 2019^40.
# BCMA RNA levels in OPM-2 = BCMA RNA levels in OPM-2 by qRT-PCR; type: cell-based, human; conditions: 50 nM ATRA, 48 hours, qPCR
# Method: as §1, §2
# BCMA expression on OPM-2 = BCMA expression on OPM-2 by flow cytometry after ATRA treatment; type: cell-based, human
# Method: (§4) Flow cytometric analysis of BCMA-expression on MM.1S, OPM-2 and NCI-H929 cell lines that had been cultured in the absence or presence of 50 nM ATRA for 72 hours. […] 7-AAD was used to exclude dead cells from analysis.
# [4] = test system: EGFRt_BCMA-CAR transgene expression of BCMA CD4+ and CD8+ CAR T-cells; test: EGFRt_BCMA-CAR transgene expression of BCMA-CAR T-cells after incubation with ATRA; type: cell-based, human; conditions: increasing doses of ATRA, 72 hours; EGFRt+ T cells
# Method: EGFRt_BCMA-CAR transgene expression of BCMA CD4+ and CD8+ CAR T-cells after incubation with increasing doses of ATRA for 72 hours determined by flow cytometry. […] Data are presented as mean values+SD (n=3).
# [5] = test system: BCMA CD4+ and CD8+ CAR T-cells; test: Viability of BCMA-CAR T-cells after incubation with ATRA; type: cell-based, human; conditions: increasing doses of ATRA, 72 hours; 7-AAD- T cells
# Method: Viability of BCMA CD4+ and CD8+ CAR T-cells after incubation with increasing doses of ATRA for 72 hours determined by flow cytometry. […] Data are presented as mean values+SD (n=3).
# BCMA expression on MM.1S [6] = test: BCMA expression on MM.1S by flow cytometry after ATRA treatment; type: cell-based, human
# Method: as §4
# [7] = test system: BCMA expression on primary myeloma cells; test: BCMA expression on primary myeloma cells by flow cytometry after ATRA treatment
# MM.1S myeloma cells = test: Cytolytic activity of CD8+ BCMA-CAR T-cells against pretreated MM.1S, bioluminescence-based assay; type: cell-based, human; conditions: MM.1S pretreated 72 hours with 100 nM ATRA and/or 0.01 uM GSI; 4 h co-incubation
# Method: Myeloma cell lines were incubated with 100 nM ATRA and/or 0.01 uM GSI for 72 hours or were left untreated. Cytolytic activity of CD8^+ BCMA-CAR T-cells was determined in a bioluminescence-based assay after 4 h of co-incubation with target cells. Assay was performed in triplicate wells with 5,000 target cells per well. Data are presented as mean values+SD of n=4 independent experiments.
# as §3
# [8] = test system: BCMA expression on NCI-H929; test: BCMA expression on NCI-H929 by flow cytometry after ATRA treatment
# [9] = test system: BCMA-CAR T-cells co-incubated with MM.1S; test: Cytokine release of BCMA-CAR T-cells after stimulation with pretreated MM.1S, ELISA; type: cell-based, human; conditions: MM.1S pretreated 72 hours with 100 nM ATRA and/or 0.01 uM GSI, 20 hours co-incubation
# Method: MM.1S were incubated with 100 nM ATRA and/or 0.01 uM GSI for 72 hours or were left untreated. Afterwards, BCMA-CAR T-cells were co-incubated with these target cells for 20 hours. Cytokine release of BCMA-CAR T-cells was determined in the supernatant by ELISA. Assay was performed in triplicate wells. Data are presented as mean values+SD of n=3 independent experiments.
# as §3
# [10] = deltaMFI at baseline normalized to 1, 72 hours
structure (smiles),measurement,setting,value
"CC1=C(/C=C/C(C)=C/C=C/C(C)=C/C(=O)O)C(C)(C)CCC1 [ATRA, all-trans retinoic acid]",relative increase in BCMA transcripts,BCMA RNA levels in MM.1S,1.8 fold
same,proliferative capacity of BCMA-CAR T-cells,[1],enhanced proliferative capacity
same,BCMA surface molecules by dSTORM after ATRA treatment,[2],increase of BCMA surface molecules
same,BCMA expression on MM.1S myeloma cells from bone marrow vs control mice,BCMA expression on MM.1S [3],Significantly higher BCMA expression
same,relative increase in BCMA transcripts,BCMA RNA levels in OPM-2,2.1 fold
same,time for BCMA expression to return to baseline levels upon discontinuation of ATRA treatment,BCMA expression on OPM-2,≤ 72 h
same,BCMA expression when ATRA treatment was recommenced,BCMA expression on OPM-2; 72 hours after re-exposition,increased again with the same amplitude
same,"BCMA expression, deltaMFI","BCMA expression on OPM-2; ATRA (50 nM per FIG. 1) for 72 hours, untreated deltaMFI 3,558","7,358"
same,relative increase in BCMA expression after ATRA treatment,BCMA expression on OPM-2; [10],1.9 fold
same,effect on expression of the EGFRt_BCMA-CAR transgene,[4],did not diminish
same,effect on viability of BCMA-CAR T-cells,[5],no negative effect
same,time for BCMA expression to return to baseline levels upon discontinuation of ATRA treatment,BCMA expression on MM.1S [6],≤ 72 h
same,BCMA expression when ATRA treatment was recommenced,BCMA expression on MM.1S [6]; 72 hours after re-exposition,increased again with the same amplitude
same,"BCMA expression, deltaMFI","BCMA expression on MM.1S [6]; ATRA (50 nM per FIG. 1) for 72 hours, untreated deltaMFI 1,098","2,709"
same,relative increase in BCMA expression after ATRA treatment,BCMA expression on MM.1S [6]; [10],1.9 fold
same,BCMA expression once exposure to ATRA was discontinued,"[7]; 100 nM ATRA, 24 hours after removal",declined to baseline levels
same,"increase in deltaMFI for BCMA expression, average","[7]; 100 nM ATRA, 72 hours",1.6 ×
same,BCMA expression upon re-exposure to ATRA,[7]; 72 hours after re-exposition,increased again
same,BCMA expression by flow cytometry after ATRA,"[7]; n=5 patients, 72 hours, 100 nM P=0.04, 50 nM P=0.006, 25 nM P=0.04",significant increase
same,cytolytic activity of BCMA-CAR T-cells against pretreated vs non-treated target cells,MM.1S myeloma cells,superior cytolysis
same,time for BCMA expression to return to baseline levels upon discontinuation of ATRA treatment,[8],≤ 72 h
same,BCMA expression when ATRA treatment was recommenced,[8]; 72 hours after re-exposition,increased again with the same amplitude
same,"BCMA expression, deltaMFI","[8]; ATRA (50 nM per FIG. 1) for 72 hours, untreated deltaMFI 9,883","13,891"
same,relative increase in BCMA expression after ATRA treatment,[8]; [10],1.7 fold
same,cytokine release of BCMA-CAR T-cells,[9],enhanced
